According to patent publication US7799778B1, “5-substituted 2-aminopyridine analogs for treating allergic and inflammatory diseases” (Alcon, Inc., priority 2005, dated 2010):

Target: Syk (h) (Homo sapiens, UniProt P43405)
Assay: Syk kinase activity (inhibition) assay, 33P-ATP filter assay
Format: biochemical
Conditions: 10 μM test agent; Syk (h) 5-10 mU; 40 minutes at room temperature
Method: In a final reaction volume of 25 μl, Syk (h) (5-10 mU) is incubated with 50 mM Tris pH 7.5, […], 0.1 mM Na3VO4, 0.1% β-mercaptoethanol, 0.1 mg/mL poly (Glu, Tyr) 4:1, 10 μM test agent, 10 mM Mg Acetate and [γ-^33P-ATP] (specific activity approximately 500 cpm/pmol, concentration as required). The reaction is initiated by the addition of the MgATP mix. After incubation for 40 minutes at room temperature, the reaction is stopped by the addition of 5 μl of a 3% phosphoric acid solution. 10 μl of the reaction is then spotted onto a Filtermat A and washed three times for 5 minutes in 75 mM phosphoric acid and once in methanol prior to drying and scintillation counting. Percent inhibition was calculated using the following formula:
% Control=((sample-mean no enzyme)/(mean plus enzyme−mean no enzyme))×100.

| Structure (SMILES) | inhibition at 10 µM [%] |
| --- | --- |
| COc1cncc(-c2ccc(N3CCOCC3)nc2)c1 | 36 |
| CCOc1cccc(-c2ccc(N(C)CCN(C)C)nc2)c1 | 42 |
| Fc1ccc(-c2ccc(N3CCOCC3)nc2)c(F)c1 | 34 |
| Fc1ccc(-c2ccc(N3CCN(CCN4CCCC4)CC3)nc2)c(F)c1 | 36 |
| CN(C)CCN(C)c1ccc(-c2cccc(N(C)C)c2)cn1 | 45 |
| CN(C)CCN(C)c1ccc(-c2ccc(Cl)cc2)cn1 | 51 |
| COc1cc(-c2ccc(N3CCN(CCN(C)C)CC3)nc2)cc(OC)c1OC | 36 |
| CN(C)CCN1CCN(c2ccc(-c3cc(C(F)(F)F)cc(C(F)(F)F)c3)cn2)CC1 | 56 |
| CCCC/C=C/c1ccc(N2CCN(CCN(C)C)CC2)nc1 | 31 |
| CCCC/C=C/c1ccc(N2CCN(CCN3CCCC3)CC2)nc1 | 38 |
| CN(C)CCN1CCN(c2ccc(/C=C/c3ccccc3)cn2)CC1 | 36 |
| COc1cc(-c2ccc(N3CCN(CCN4CCCC4)CC3)nc2)cc(OC)c1OC | 37 |
| Oc1cccc(-c2ccc(N3CCOCC3)nc2)c1 | 35 |
| CN(C)CCN(C)c1ccc(-c2ccc(F)cc2F)cn1 | 45 |
| CN(C)CCN1CCN(c2ccc(-c3ccc(OC(F)(F)F)cc3)cn2)CC1 | 30 |
| c1cc(N2CCN(CCN3CCCC3)CC2)ncc1-c1ccc2c(c1)OCO2 | 32 |
